Test results taken from PMC11045757, “Group 3 medulloblastoma transcriptional networks collapse under domain specific EP300/CBP inhibition” (Nature Communications, 2024).
Where “and” joins values, the source holds several entries; their conditions need not be identical. Equal values may be shown once. Read-outs that look alike come from different tables or passages of the source.

What was measured:
HDMB03 (HDMBO3) cells = assay: ERCC spike-in RNAseq gene expression after 6 h treatment; format: cell-based; conditions: HDMBO3, replicate values, Supplementary Fig 6c
Procedure: (§1) First, we examined global changes in gene expression induced by drug treatment.
(§2) External RNA consortium control RNAs (ERCC, Ambion) were added directly to Trizol, based on cell number prior to RNA extraction. RNA samples were treated with DNAse I (Invitrogen) prior to recovery. Samples were obtained in biological triplicate. Total RNA was subjected to ribosomal RNA depletion prior to library preparation using the Truseq Stranded Total Library Prep Kit (Illumina) and sequencing on a Nextseq-500 (paired end, 100 bp reads).
(§3) Sequences were aligned using HISAT2 (version 2.1.0)[77] in paired-end mode with default parameters to build version hg19 of the human genome to which the sequences of the ERCC synthetic spike-in RNAs (http://tools.invitrogen.com/downloads/ERCC92.fa) had been added. Per-gene expression was quantified using htseq-count[78] with parameters “-i gene_id --stranded=reverse -f bam -m,” and version 87 of the canonical GRCh37 gene list from RefSeq to which ERCC coordinates were added. TPM-normalized (Transcripts Per Million) expression was then computed for each gene and synthetic ERCC spike-in RNA. Per-gene exon length was calculated across all exons of all isoforms of each gene. The standard TPM-normalization strategy is: normterm = sum of (read count * read length/exon length) across all genes. TPM = read count * read length/exon length * 1e6/normterm. We used a loess regression to normalize the TPM values across all samples of the batch, using only the spike-in values to fit the loess by the “affy” R package[79] with function loess.normalize. This function allowed us to perform loess regression on a matrix of TPM values and used the ERCC subset of data for fitting the loess. The output from this was a matrix of normalized TPM values controlled by ERCC spike-ins.
(§4) We used the elbow method[81] to determine the k value in k-means cluster analysis.
(§5) Dependency analysis was performed using the 22Q4 release of the DepMap dataset, comprising seven medulloblastoma cell lines: UW228, DAOY, ONS76, D458, D425, D283MED, D341MED. Dependency was defined as a Chronos gene effect score of <−0.5, and gene lists were filtered for dependency in >2/7 medulloblastoma cell lines. […] PANTHER was used to define gene annotations, with unknown annotations assigned using individual assessment using the Genecards.org resource.

MB002 cells = assay: as above; format: cell-based; conditions: MB002, replicate values, Supplementary Fig 6c
Procedure: as §1, §2, §3, §4, §5

[1] = system: MB002 group 3 medulloblastoma cells; assay: CellTiter-Glo dose-response growth assay; format: cell-based; conditions: day 3; read-out: d3 IC50 MB002
Procedure: (§6) CellTiter-Glo assay was performed as per the manufacturer’s instructions, at the noted timepoint after compound treatment or plating. For Kelly, TE617T, RhJT, NCIH2122, NCIH650 and 143B, 500 cells were plated in normal growth media per well in a 384-well plate (Corning). HDMB03 and MB002 cells were plated in growth media at 500 cells/well in a 384-well plate. […] Cells were incubated for the noted timepoints prior to performing CellTiter-Glo assay as per the manufacturer’s instructions, and reading plates on an Envision 2104 microplate reader.

[2] = system: HDMB03 (HDMBO3) group 3 medulloblastoma cells; assay: CellTiter-Glo dose-response growth assay; format: cell-based
Procedure: as §6

EP300 bromodomain [3] = target: T1, EP300 bromodomain (Homo sapiens, UniProt Q09472); assay: Differential scanning fluorimetry (DSF) thermal shift; format: binding; conditions: DSF; for ∆Tm (°C) EP300: 5 μM protein, 100 μM compound, three independent experiments, average ± SD
T1 construct: 6xHis (cleaved yes); host or cells: E. coli BL21 (DE3) RIL
T1 sequence (Q09472 1048-1161): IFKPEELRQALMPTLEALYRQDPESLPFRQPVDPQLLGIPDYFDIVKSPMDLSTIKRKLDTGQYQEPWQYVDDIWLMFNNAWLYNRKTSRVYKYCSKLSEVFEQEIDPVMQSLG
Procedure: (§7) At OD600 of 0.6, the culture was cooled down to 18 °C and induced with 0.1 mM IPTG. After 18 h growth, the culture was harvested by centrifugation at 6000 × g for 25 min and stored at -80 °C. Harvested cell pellets were re-suspended in 50 mM Na/K phosphate buffer (pH 7.4) containing 100 mM NaCl, 40 mM imidazole, 0.01% w/v lysozyme and 0.01% v/v Triton X-100 at 4 °C for 1 h, subjected to sonication and the lysate was clarified by centrifugation (30,000 × g for 45 min at 4 °C). Proteins were purified by FPLC at 4 °C using columns and chromatography materials from GE Healthcare. […] Proteins were purified to homogeneity by size exclusion chromatography using Superdex 75 equilibrated with elution buffer (50 mM HEPES pH 7.5, 100 mM NaCl, 2 mM DTT). All BRDs eluted as monomeric protein and were of crystallization grade quality (>95% purity as judged by SDS-PAGE). Pool fractions were combined, concentrated to 10–12 mg/ml, and aliquots were flash-frozen in liquid N2 and stored at −80 °C.
(§8) DSF experiments were performed with an Applied Biosystem StepOnePlus real-time PCR system (Thermo Fisher Scientific) using 96-well format plates, assayed in quadruplicate. For thermal shift determination, 5 μM protein was mixed with 100 μM compound in 50 mM HEPES, pH 7.5, 150 mM NaCl, 2 mM DTT, 2% DMSO, 5X SYPRO Orange (Thermo Fisher Scientific) in 20 μL reaction volumes. Reaction mixtures were heated from 25 to 95 °C at 1 °C/min with fluorescence readings every 0.5 °C at 610 nm. The observed thermal shift (ΔTm) was recorded as the difference between the Tm of sample and DMSO reference wells.

BRD4-BD1 (BRD4-1) [4] = target: T2, BRD4-BD1 (BRD4-1) (Homo sapiens, UniProt O60885); assay: as above; format: binding; conditions: DSF; for ∆Tm (°C) BRD4-1: 5 μM protein, 100 μM compound, three independent experiments, average ± SD
T2 construct: BRD4-BD1 (residues 44-168); 6xHis (cleaved yes); host or cells: E. coli BL21 (DE3) RIL
Procedure: as §7, §8

[5] = target: GFP-tagged CBP bromodomain (Homo sapiens, UniProt Q92793); assay: Microscale thermophoresis (MST); format: binding
Chain of GFP-tagged CBP bromodomain (Q92793 1085-1192 limits assumed): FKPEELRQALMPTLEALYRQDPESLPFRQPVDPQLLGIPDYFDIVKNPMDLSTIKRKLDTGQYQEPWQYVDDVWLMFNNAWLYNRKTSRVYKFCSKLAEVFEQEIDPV
Procedure: MST experiments were performed in a Monolith NT.115 Pico instrument (NanoTemper Technologies) following published procedures. […] MST traces were recorded using standard parameters: 5 s MST power off, 30 s MST power on and 5 s MST power off. Measurements were taken at -1-0 s (cold region) and 10 s (hot region) and data were analyzed using the NTAnalysis software.

CBP bromodomain [6] = target: T3, CBP bromodomain (Homo sapiens, UniProt Q92793); assay: Differential scanning fluorimetry (DSF) thermal shift; format: binding; conditions: for ∆Tm (°C) CBP / ΔTm (°C) CBP: DSF; for ∆Tm (°C) CBP: 5 μM protein, 100 μM compound, three independent experiments, average ± SD
T3 construct: CBP (residues 1081-1197); 6xHis (cleaved yes); host or cells: E. coli BL21 (DE3) RIL
T3 sequence (Q92793 1081-1197): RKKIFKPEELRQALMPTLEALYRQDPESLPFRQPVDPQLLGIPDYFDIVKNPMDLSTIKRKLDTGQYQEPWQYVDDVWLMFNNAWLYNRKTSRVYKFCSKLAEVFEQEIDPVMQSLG
Procedure: as §7, with “After” for “At OD600 of 0.6, the culture was cooled down to 18 °C and induced with 0.1 mM IPTG. After”, “All BRDs eluted as monomeric protein and were of crystallization grade quality (>95% purity as judged by SDS-PAGE).” left out
(§9) DSF experiments were performed with an Applied Biosystem StepOnePlus real-time PCR system (Thermo Fisher Scientific) using 96-well format plates, assayed in quadruplicate. For thermal shift determination, 5 μM protein was mixed with 100 μM compound in 50 mM HEPES, pH 7.5, 150 mM NaCl, 2 mM DTT, 2% DMSO, 5X SYPRO Orange (Thermo Fisher Scientific) in 20 μL reaction volumes.

CBP bromodomain [7] = assay: as above; format: binding; conditions: ΔTm (CBP)/ΔTm(BRD4)
Procedure: as §7, with “After” for “At OD600 of 0.6, the culture was cooled down to 18 °C and induced with 0.1 mM IPTG. After”, “All BRDs eluted as monomeric protein and were of crystallization grade quality (>95% purity as judged by SDS-PAGE).” left out
as §9

BRD4-BD1 (BRD4-1) [8] = target: T2, BRD4-BD1 (BRD4-1); assay: Isothermal titration calorimetry (ITC); format: binding; conditions: for reduction of activity against BRD4: relative to CCS1477
Procedure: as §7
All experiments were conducted using an PEAQ-ITC calorimeter (Malvern Scientific). BRDs were buffer exchanged using PD10 columns (GE life sciences) into 50 mM HEPES pH7.5 and 100 mM NaCl (ITC buffer) before the experiment and concentrated to ∼10 mg/mL. Experiments were carried out in ITC buffer while stirring at 750 rpm through reverse titration. The microsyringe (40 μL load volume) was loaded with the protein sample (250–600 μM protein in ITC buffer) and inserted into the calorimetric cell (0.2 mL cell volume) consisting of compound (20–60 μM in ITC buffer). All titrations were conducted using an initial control injection of 0.2 μL followed by 13 identical injections (~3 μL per injection) with a duration of 2 s (per injection) and a spacing of 150 s between injections. The ratio of protein/compound was optimized to ensure complete saturation of the titrant before the final injection to ensure proper baseline determination. Data were corrected for dilution and analyzed using the MicroCal Origin software to determine the enthalpies of binding (ΔH) and binding constants as described. Thermodynamic parameters were calculated using the basic equation of thermodynamics (ΔG = ΔH − TΔS = −RTlnKB) where ΔG, ΔH and ΔS are the changes in free energy, enthalpy and entropy of binding, respectively. A single binding site model was used for all ligand-protein interactions.

EP300 bromodomain [9] = target: T1, EP300 bromodomain; assay: Isothermal titration calorimetry (ITC); format: binding; conditions: single ITC experiment, data fit ± SEM
Procedure: as §7, with “After” for “At OD600 of 0.6, the culture was cooled down to 18 °C and induced with 0.1 mM IPTG. After”, “All BRDs eluted as monomeric protein and were of crystallization grade quality (>95% purity as judged by SDS-PAGE).” left out

CBP bromodomain [10] = target: T3, CBP bromodomain; assay: Isothermal titration calorimetry (ITC); format: binding; conditions: single ITC experiment, data fit ± SEM
Procedure: as §7, with “After” for “At OD600 of 0.6, the culture was cooled down to 18 °C and induced with 0.1 mM IPTG. After”, “All BRDs eluted as monomeric protein and were of crystallization grade quality (>95% purity as judged by SDS-PAGE).” left out

[11] = three independent MST experiments, average ± SD, read-out: Kd (nM) CBP
[12] = Homo sapiens, HD-MB03, HDMBO3 G3MB cell growth, read-out: IC50 (nM) HDMBO3

∆Tm (°C) EP300 (EP300 bromodomain [3]) [°C] | ∆Tm (°C) BRD4-1 (BRD4-BD1 (BRD4-1) [4]) [°C] | ∆Tm (°C) CBP (CBP bromodomain [6]) [°C] | IC50 [2, 12] [nM] | SMILES | Kd [5, 11] [nM] | Ratio CBP/BRD4 of ∆Tm (CBP bromodomain [7]) | reduction of activity against BRD4 (BRD4-BD1 (BRD4-1) [8]) | further results
– | – | – | – | Cc1sc2c(c1C)C(c1ccc(Cl)cc1)=N[C@@H](CC(=O)OC(C)(C)C)c1nnc(C)n1-2 [JQ1] | – | – | – | Normalized MYC expression (HDMB03 (HDMBO3) cells): 0.9657 and 0.7621 and 0.679; Normalized MYC expression (MB002 cells): 0.8713 and 1.005 and 0.8421; IC50 [1]: 107 nM; IC50 ([2]; day 3, read-out: d3 IC50 HDMBO3): 100 nM
7.3 ± 1.3 | 2.1 ± 0.06 | 7.8 ± 0.43 | > 100000 | Cc1noc(C)c1-c1ccc2c(c1)nc(C1CCCC(=O)N1)n2C1CCC(NC(=O)OC(C)(C)C)CC1 (stereo not shown) [Compound 1] | – | 3.7 | ~ 10 fold | Kd (EP300 bromodomain [9]): 2300 ± 386 nM; Kd (CBP bromodomain [10]): 1550 ± 600 nM; Kd (BRD4-BD1 (BRD4-1) [8]; single ITC experiment, data fit ± SEM): 4210 ± 400 nM
14.3 ± 0.19 | 3.2 ± 0.13 | 15.3 ± 0.2 | 558 ± 335 | COC1CCC(n2c(C3CCCC(=O)N3c3cccc(C(C)(C)C)c3)nc3cc(-c4c(C)noc4C)ccc32)CC1 (stereo not shown) [Compound 6] | 30 ± 21.6 | 4.8 | – | –

SMILES | ∆Tm (°C) EP300 (EP300 bromodomain [3]) [°C] | ∆Tm (°C) BRD4-1 (BRD4-BD1 (BRD4-1) [4]) [°C] | ∆Tm (°C) CBP (CBP bromodomain [6]) [°C] | IC50 [2, 12] [nM] | Kd [5, 11] [nM] | Ratio CBP/BRD4 of ∆Tm (CBP bromodomain [7]) | reduction of activity against BRD4 (BRD4-BD1 (BRD4-1) [8]) | further results
COC1CCC(n2c(C3CCCC(=O)N3)nc3cc(-c4c(C)noc4C)ccc32)CC1 (stereo not shown) [Compound 2] | 5.6 ± 0.12 | 2.9 ± 0.11 | 5.6 ± 0.05 | – | 1770 ± 234 | 1.9 | ~ 10 fold | ΔTm (°C) EP300 (EP300 bromodomain [3]; Figure 3B, EP300): 5.6 °C; ∆Tm (°C) BRD4-1 (BRD4-BD1 (BRD4-1) [4]; listed as CCS1447int2): 2.9 °C; ΔTm (°C) BRD4-BD1 (BRD4-BD1 (BRD4-1) [4]; Figure 3A, BRD4-BD1): 2.9 °C; Kd ([5]; MO.Affinity Analysis export, single runs, target clGFP-CBPBRD 5e-8, unit inferred, listed as CCS1477int2, read-out: Kd (fit result of individual MST run)): 1770 nM and 1540 nM and 2010 nM; ∆Tm (°C) CBP (CBP bromodomain [6]; listed as CCS1447int2): 5.6 °C; ΔTm (°C) CBP (CBP bromodomain [6]; Figure 3A, CBP bromodomain): 5.6 °C; ΔTm (°C) CBP (CBP bromodomain [6]; Figure 3B, CBP): 5.6 °C; DSF ΔTm (°C) (CBP bromodomain [6]; Figure 3C, DSF (values equal CBP column)): 5.6 °C; IC50 ([2]; HDMBO3 G3MB cell growth, read-out: IC50 (nM) HDMBO3): > 100000 nM
